How the values were obtained:
Assay type in all cases: cell-based
[1] = tested on: Bacillus coagulans; experiment: Colony formation, population weight and percent transmittance with MSM; settings: 546 nm, 25x25 mm agar section, 1.0, 2.5, 5.0% MSM
Procedure: The microorganisms were grown for 72 hours in 30 milliliters of tryptic soy broth. At the end of the 72 hours, the broth was measured for colony formation, with photographic documentation of colony formation on tryptic soy agar. Percent transmittance was also measured on a 25 mm×25 mm area of the tryptic soy agar placed between two microscope slides in a spectrophotometer.
For the Bacillus coagulans, the organism was isolated and grown for 24 hours before harvesting. The harvested microorganism was placed into a sterile 100 mL bottle called dilution A. Dilution A was further diluted into one working solution, with a count of 210 Bacillus coagulans per 1 mL, called dilution B. One milliliter of Dilution B was used to inoculate the 30 mL of TSB concentrations stated above.
Each dilution for the microorganism was plated in triplicate for each sample. To capture the appropriate colonies per milliliter, the microorganism was plated at six different dilutions.
The population count was based on the dilution of the tryptic soy broth after 72 hours and inoculation on to tryptic soy agar plates. The plates were incubated for 48 hours and enumerated.
The tryptic soy broth after 72 hours was centrifuged down in a conical vial. The supernatant was pulled off and the pellet was washed. The centrifuging and washing was repeated three times. […] Each vial was weighed empty and recorded. […]

[2] = tested on: Acidophilus plus Bifidus milk microorganisms; experiment: Recovery from Acidophilus plus bifidus milk fortified with MSM; settings: for Lag Recovery of Lactobacillus acidophilus in Milk fortified with MSM Day 14: A/B 2.5 MSM; for Lag Recovery of Lactobacillus acidophilus in Milk fortified with MSM Day 7 / Lag Recovery of Lactobacillus acidophilus in Milk fortified with MSM Day 21 / Lag Recovery of Lactobacillus acidophilus in Milk fortified with MSM Day 28: A/B […] MSM
[3] = tested on: Bacillus coagulans; experiment: Probiotic growth in media supplemented with MSM
Excerpt: Plates were then counted. […] Data are presented in Cfu/mL.

Methylsulfonylmethane [MSM]
Percent Transmittance ([1]; 1.0% MSM): 51.5%
Percent Transmittance ([1]; 5.0% MSM): 45.6%
Lag Recovery of Lactobacillus acidophilus in Milk fortified with MSM Day 14 ([2]; Day 14-24): 13.35 logs
Lag Recovery of Lactobacillus acidophilus in Milk fortified with MSM Day 14 ([2]; Day 14-48): 13.47 logs
Lag Recovery of Lactobacillus acidophilus in Milk fortified with MSM Day 14 ([2]; Day 14-72): 13.43 logs
Lag Recovery of Lactobacillus acidophilus in Milk fortified with MSM Day 7 ([2]; Day 7-24): 13.44 logs
Lag Recovery of Lactobacillus acidophilus in Milk fortified with MSM Day 7 ([2]; Day 7-72): 12.77 logs
Lag Recovery of Lactobacillus acidophilus in Milk fortified with MSM Day 21 ([2]; Day 21-24): 13.08 logs
Lag Recovery of Lactobacillus acidophilus in Milk fortified with MSM Day 21 ([2]; Day 21-48): 12.08 logs
Lag Recovery of Lactobacillus acidophilus in Milk fortified with MSM Day 21 ([2]; Day 21-72): 12.33 logs
Lag Recovery of Lactobacillus acidophilus in Milk fortified with MSM Day 28 ([2]; Day 28-24): 12.67 logs
Lag Recovery of Lactobacillus acidophilus in Milk fortified with MSM Day 28 ([2]; Day 28-48): 13.19 logs
Lag Recovery of Lactobacillus acidophilus in Milk fortified with MSM Day 28 ([2]; Day 28-72): 12.00 logs
Recovery of Lactobacillus acidophilus in Milk fortified with MSM Day 7, initial start data ([2]; Ac/Bf […] MSM, Day 7): 8.42 logs
Recovery of Lactobacillus acidophilus in Milk fortified with MSM Day 14, initial start data ([2]; Ac/Bf […] MSM, Day 14-0): 3.70 logs
Recovery of Lactobacillus acidophilus in Milk fortified with MSM Day 21, initial start data ([2]; Ac/Bf […] MSM, Day 21): 3.37 logs
Recovery of Lactobacillus acidophilus in Milk fortified with MSM Day 28, initial start data ([2]; Ac/Bf […] MSM, Day 28): 1.94 logs
Day 7 log recovery growth rate increase from start time of zero ([2]; Ac/Bf […] MSM, Hour 0): 0.00 logs
Day 14 log recovery growth rate increase from start time of zero ([2]; Ac/Bf […] MSM, Hour 0): 0.00 logs
Day 21 log recovery growth rate increase from start time of zero ([2]; Ac/Bf […] MSM, Hour 0): 0.00 logs
Day 7 log recovery growth rate increase from start time of zero ([2]; Ac/Bf […] MSM, Hour 24): 5.02 logs
Day 14 log recovery growth rate increase from start time of zero ([2]; Ac/Bf […] MSM, Hour 24): 9.65 logs
Day 21 log recovery growth rate increase from start time of zero ([2]; Ac/Bf […] MSM, Hour 24): 9.71 logs
Day 7 log recovery growth rate increase from start time of zero ([2]; Ac/Bf […] MSM, Hour 48): −0.94 logs
Day 14 log recovery growth rate increase from start time of zero ([2]; Ac/Bf […] MSM, Hour 48): 0.12 logs
Day 21 log recovery growth rate increase from start time of zero ([2]; Ac/Bf […] MSM, Hour 48): −1.00 logs
Day 7 log recovery growth rate increase from start time of zero ([2]; Ac/Bf […] MSM, Hour 72): 0.27 logs
Day 14 log recovery growth rate increase from start time of zero ([2]; Ac/Bf […] MSM, Hour 72): −0.04 logs
Day 21 log recovery growth rate increase from start time of zero ([2]; Ac/Bf […] MSM, Hour 72): 0.25 logs
Day 28 log recovery growth rate increase from start time of zero ([2]; Ac/Bf […] MSM, Time 0): 0.00 logs
Day 28 log recovery growth rate increase from start time of zero ([2]; Ac/Bf […] MSM, Time 24): 10.73 logs
Day 28 log recovery growth rate increase from start time of zero ([2]; Ac/Bf […] MSM, Time 48): 0.52 logs
Day 28 log recovery growth rate increase from start time of zero ([2]; Ac/Bf […] MSM, Time 72): −1.19 logs
Growth of Bacillus coagulans ([3]; 0.125% MSM, 0 h): 1.52 log10 CFU/mL
Growth of Bacillus coagulans ([3]; 0.125% MSM, 8 h): 4.81 log10 CFU/mL
Growth of Bacillus coagulans ([3]; 0.125% MSM, 16 h): 6.95 log10 CFU/mL
Growth of Bacillus coagulans ([3]; 0.125% MSM, 24 h): 9.87 log10 CFU/mL
Growth of Bacillus coagulans ([3]; 0.125% MSM, 32 h): 11.06 log10 CFU/mL
Growth of Bacillus coagulans ([3]; 0.125% MSM, 40 h): 11.72 log10 CFU/mL
Growth of Bacillus coagulans ([3]; 0.125% MSM, 48 h): 11.56 log10 CFU/mL
Growth of Bacillus coagulans ([3]; 0.125% MSM, 56 h): 9.60 log10 CFU/mL
Growth of Bacillus coagulans ([3]; 0.125% MSM, 64 h): 12.13 log10 CFU/mL
Growth of Bacillus coagulans ([3]; 0.125% MSM, 72 h): 10.14 log10 CFU/mL
Growth of Bacillus coagulans ([3]; 0.2% MSM, 0 h): 1.67 log10 CFU/mL
Growth of Bacillus coagulans ([3]; 0.2% MSM, 8 h): 4.94 log10 CFU/mL
Growth of Bacillus coagulans ([3]; 0.2% MSM, 16 h): 7.19 log10 CFU/mL
Growth of Bacillus coagulans ([3]; 0.2% MSM, 24 h): 10.34 log10 CFU/mL
Growth of Bacillus coagulans ([3]; 0.2% MSM, 32 h): 11.25 log10 CFU/mL
Growth of Bacillus coagulans ([3]; 0.2% MSM, 40 h): 11.34 log10 CFU/mL
Growth of Bacillus coagulans ([3]; 0.2% MSM, 48 h): 9.94 log10 CFU/mL
Growth of Bacillus coagulans ([3]; 0.2% MSM, 56 h): 11.45 log10 CFU/mL
Growth of Bacillus coagulans ([3]; 0.2% MSM, 64 h): 11.37 log10 CFU/mL
Growth of Bacillus coagulans ([3]; 0.2% MSM, 72 h): 10.94 log10 CFU/mL
Growth of Bacillus coagulans ([3]; 0.50% MSM, 0 h): 1.48 log10 CFU/mL
Growth of Bacillus coagulans ([3]; 0.50% MSM, 8 h): 4.42 log10 CFU/mL
Growth of Bacillus coagulans ([3]; 0.50% MSM, 16 h): 6.94 log10 CFU/mL
Growth of Bacillus coagulans ([3]; 0.50% MSM, 24 h): 10.29 log10 CFU/mL
Growth of Bacillus coagulans ([3]; 0.50% MSM, 32 h): 11.05 log10 CFU/mL
Growth of Bacillus coagulans ([3]; 0.50% MSM, 40 h): 10.25 log10 CFU/mL
Growth of Bacillus coagulans ([3]; 0.50% MSM, 48 h): 10.40 log10 CFU/mL
Growth of Bacillus coagulans ([3]; 0.50% MSM, 56 h): 10.76 log10 CFU/mL
Growth of Bacillus coagulans ([3]; 0.50% MSM, 64 h): 10.45 log10 CFU/mL
Growth of Bacillus coagulans ([3]; 0.50% MSM, 72 h): 10.86 log10 CFU/mL
Growth of Bacillus coagulans ([3]; 1% MSM, 0 h): 1.30 log10 CFU/mL
Growth of Bacillus coagulans ([3]; 1% MSM, 8 h): 4.98 log10 CFU/mL
Growth of Bacillus coagulans ([3]; 1% MSM, 16 h): 7.29 log10 CFU/mL
Growth of Bacillus coagulans ([3]; 1% MSM, 24 h): 10.30 log10 CFU/mL
Growth of Bacillus coagulans ([3]; 1% MSM, 32 h): 11.42 log10 CFU/mL
Growth of Bacillus coagulans ([3]; 1% MSM, 40 h): 11.02 log10 CFU/mL
Growth of Bacillus coagulans ([3]; 1% MSM, 48 h): 10.38 log10 CFU/mL
Growth of Bacillus coagulans ([3]; 1% MSM, 56 h): 10.86 log10 CFU/mL
Growth of Bacillus coagulans ([3]; 1% MSM, 64 h): 10.40 log10 CFU/mL
Growth of Bacillus coagulans ([3]; 1% MSM, 72 h): 10.70 log10 CFU/mL
Growth of Bacillus coagulans ([3]; 5% MSM, 0 h): 1.56 log10 CFU/mL
Growth of Bacillus coagulans ([3]; 5% MSM, 8 h): 4.61 log10 CFU/mL
Growth of Bacillus coagulans ([3]; 5% MSM, 16 h): 7.56 log10 CFU/mL
Growth of Bacillus coagulans ([3]; 5% MSM, 24 h): 10.48 log10 CFU/mL
Growth of Bacillus coagulans ([3]; 5% MSM, 32 h): 11.55 log10 CFU/mL
Growth of Bacillus coagulans ([3]; 5% MSM, 40 h): 10.85 log10 CFU/mL
Growth of Bacillus coagulans ([3]; 5% MSM, 48 h): 10.22 log10 CFU/mL
Growth of Bacillus coagulans ([3]; 5% MSM, 56 h): 11.1 log10 CFU/mL
Growth of Bacillus coagulans ([3]; 5% MSM, 64 h): 10.75 log10 CFU/mL
Growth of Bacillus coagulans ([3]; 5% MSM, 72 h): 11.81 log10 CFU/mL
Growth of Bacillus coagulans ([3]; […] MSM, 0 h): 1.43 log10 CFU/mL
Growth of Bacillus coagulans ([3]; […] MSM, 8 h): 5.13 log10 CFU/mL
Growth of Bacillus coagulans ([3]; […] MSM, 16 h): 7.05 log10 CFU/mL
Growth of Bacillus coagulans ([3]; […] MSM, 24 h): 10.22 log10 CFU/mL
Growth of Bacillus coagulans ([3]; […] MSM, 32 h): 11.70 log10 CFU/mL
Growth of Bacillus coagulans ([3]; […] MSM, 40 h): 10.55 log10 CFU/mL
Growth of Bacillus coagulans ([3]; […] MSM, 48 h): 10.88 log10 CFU/mL
Growth of Bacillus coagulans ([3]; […] MSM, 56 h): 10.86 log10 CFU/mL
Growth of Bacillus coagulans ([3]; […] MSM, 64 h): 10.97 log10 CFU/mL
Growth of Bacillus coagulans ([3]; […] MSM, 72 h): 11.05 log10 CFU/mL
